Target: Cell division control protein 42 homolog (Homo sapiens) (UniProt P60953)
Assay: inhibition of GTPgammaS loading onto Cdc42, late-stage follow-up, orthogonal assay for Ras-related GTPase inhibitor project, biochemical, purified His-Cdc42, PAK-PBD pull-down, Western blot (AID 2374)
Settings: His-Cdc42 GTPgS loading, at 10 µM, stronger effect = higher value

Chain of Cell division control protein 42 homolog (Homo sapiens) (P60953 whole entry, looked up): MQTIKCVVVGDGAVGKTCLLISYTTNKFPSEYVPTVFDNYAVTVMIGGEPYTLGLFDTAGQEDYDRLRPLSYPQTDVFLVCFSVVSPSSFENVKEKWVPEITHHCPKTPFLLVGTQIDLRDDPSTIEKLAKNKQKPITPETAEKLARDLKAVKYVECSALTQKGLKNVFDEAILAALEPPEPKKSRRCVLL

- inhibition (at 0.1 uM GTPgS): 96%
- inhibition (at 0.5 uM GTPgS): 94%
- inhibition: 60%
Structure (SMILES): COc1ccc(C2CC(c3ccccc3)=NN2c2ccc(S(N)(=O)=O)cc2)cc1 (stereo not drawn)

Reference: PubChem BioAssay AID2374 (NMMLSC, 2010)
